Laboratory results from US20230279001A1, “IMIDAZO[1,2-A]PYRIDINE COMPOUNDS FOR THE TREATMENT OF AUTOIMMUNE DISEASE” (Hoffmann-La Roche Inc., priority 2020, published 2023).
≈ marks a conversion by molar mass, not a printed value. Where two headings read alike, the source gives them in different places.

Legend:
[1] = Single dose pharmacokinetics (PK) study in male Wister-Han rats; type: in vivo, rat
Experimental: Pharmacokinetic properties of selected compounds were assessed by single dose PK studies in Male Wister-Han Rats (vendor: Beijing Vital River Laboratory Animal Technology Co., Ltd). Briefly, two groups of animals were administered a single dose of respective compound intravenously (IV, bolus) at 2 mg/kg or orally (PO, by gavage) at 10 mg/kg. Blood samples (approximately 150 μL) were collected via Jugular vein at 5 min (only for IV), 15 min, 30 min, 1 h, 2 h, 4 h, 7 h and 24 h post-dose. Blood samples were placed into tubes containing EDTA-K2 anticoagulant and centrifuged at 3000 rpm for 15 min at 4° C. to separate plasma from the samples. After centrifugation, the resulting plasma was transferred to clean tubes for bioanalysis with LC/MS/MS. The pharmacokinetic parameters were calculated using non-compartmental analysis. The volume of distribution (VSS), half-life (T1/2) and clearance (CL) were obtained based on the plasma concentration-time curve after IV dose. The peak concentration (Cmax) was recorded directly from experimental observations after PO dose. The area under the plasma concentration-time curve (AUC0-last) was calculated using the linear trapezoidal rule up to the last detectable concentration. The bioavailability (F) was calculated based on the dose normalized AUC0-last after IV and PO dose.
The VSS of a drug represents the degree to which a drug is distributed in body tissue rather than the plasma. VSS is directly proportional with the amount of drug distributed into tissue. A higher VSS indicates a greater amount of tissue distribution.

[2] = system: Balb/c 3T3 mouse fibroblasts; assay: 3T3 in vitro phototoxicity assay (Neutral Red uptake); type: cell-based; conditions: 3T3 fibroblasts
Source text: Phototoxicity is defined as a toxic response that is elicited after the first exposure of the skin to certain chemicals and subsequent exposure to light, or that is induced similarly by skin irradiation after systemic administration of a chemical substance. The assay used in this study is designed to detect the phototoxic potential of a chemical by using a simple in vitro cytotoxicity assay with Balb/c 3T3 mouse fibroblasts. The principle of this test is a comparison of the cytotoxicity of a chemical when tested with and without exposure to a non-toxic dose of UVA-light. Cytotoxicity is expressed as a dose dependent reduction of the growth rate of cells as determined by uptake of the vital dye Neutral Red one day after treatment. […]
For this study the Neutral Red uptake (NRU) assay of Borenfreund and Puerner (Borenfreund, E, Puerner J A. Toxicity determined in vitro by morphological alterations and Neutral Red absorption. Toxicology Lett. 1985; 24:119-124) modified according to INVITTOX protocol No 78 (ERGATT/FRAME data bank of in vitro techniques in toxicology. INVITTOX PROTOCOL No 78. 3T3 NRU Phototoxicity Assay. March 1994) has been adapted to examine a possible phototoxic potential of the test item. […]
For each test item the microtiter plates were prepared according to Table 6. […] UV flux was measured with a UV-meter (Dr. Gröbel RM21). […]

| SMILES | F ([1]; dose normalized AUC0-last after IV 2 mg/kg and PO 10 mg/kg) [%] | AUC(0-t) ([1]; rat, IV 2 mg/kg, plasma, read-out: IV AUC0-last) [ng·h/mL] | Cmax ([1]; rat, PO 10 mg/kg, plasma) [ng/mL] | AUC(0-t) ([1]; rat, PO 10 mg/kg, plasma, read-out: PO AUC0-last) [ng·h/mL] | clearance ([1]; rat, plasma, IV 2 mg/kg) [mL/min/kg] | half-life ([1]; rat, plasma, IV 2 mg/kg) [min] | Vd ([1]; rat, plasma, IV 2 mg/kg, read-out: Vss) [L/kg] | Phototoxicity factor ([2]; Factor=IC50(−UV)/IC50(+UV)) | IC50 ([2]; Mus musculus, BALB/c3T3, light or radiation study, approx. 5 J/cm^2 UVA light, Neutral Red uptake) [µg/mL] |
| --- | --- | --- | --- | --- | --- | --- | --- | --- | --- |
| Cc1cc(-c2ccc(N3CCC(N4CCNCC4)CC3)nc2C(F)F)cn2ccnc12 [Example 10, 6-[2-(difluoromethyl)-6-(4-piperazin-1-yl-1-piperidyl)-3-pyridyl]-8-methyl-imidazo[1,2-a]pyridine] | 69 | 1060 | 257 | 3640 | 28 | 516 | 15 | – | – |
| CCc1nc(N2CCC(N3CC4(CNCCO4)C3)CC2)ccc1-c1cc(C)c2nccn2c1 [Example 14, 2-[1-[6-ethyl-5-(8-methylimidazo[1,2-a]pyridin-6-yl)-2-pyridyl]-4-piperidyl]-5-oxa-2,8-diazaspiro[3.5]nonane] | – | – | – | – | – | – | – | 1 | 100 (≈ 224 µM) |
